Laboratory results reported in PubChem BioAssay (NCI).
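Values below derive from 48-hour exposures of cells grown in 96-well plates, with endpoints linearly interpolated between the two concentrations bracketing the appropriate inhibition level. TGI: concentration producing complete growth inhibition.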

Experiments:
Test in all cases: NCI anticancer screen, dose series, 48 h
SK-MEL-5 melanoma = test system: SK-MEL-5 melanoma
HOP-92 NSCLC = test system: HOP-92 NSCLC
OVCAR-5 ovarian = test system: OVCAR-5 ovarian
SF-295 CNS = test system: SF-295 CNS
RPMI-8226 leukemia = test system: RPMI-8226 leukemia
786-0 renal = test system: 786-0 renal
LOX IMVI melanoma = test system: LOX IMVI melanoma
NCI-H460 lung = test system: NCI-H460 lung
HCT-116 colon = test system: HCT-116 colon
UO-31 renal = test system: UO-31 renal
EKVX NSCLC = test system: EKVX NSCLC
PC-3 prostate = test system: PC-3 prostate
SNB-19 CNS = test system: SNB-19 CNS
SF-268 CNS = test system: SF-268 CNS
CCRF-CEM leukemia = test system: CCRF-CEM leukemia
HS 578T breast = test system: HS 578T breast
HT29 colon = test system: HT29 colon
DU-145 prostate = test system: DU-145 prostate
HL-60(TB) leukemia = test system: HL-60(TB) leukemia

Row | Compound | TGI (SK-MEL-5 melanoma) [µM] | TGI (HOP-92 NSCLC) [µM] | TGI (OVCAR-5 ovarian) [µM] | TGI (SF-295 CNS) [µM] | TGI (RPMI-8226 leukemia) [µM] | TGI (786-0 renal) [µM] | TGI (LOX IMVI melanoma) [µM] | TGI (NCI-H460 lung) [µM] | TGI (HCT-116 colon) [µM] | TGI (UO-31 renal) [µM] | TGI (EKVX NSCLC) [µM] | TGI (PC-3 prostate) [µM] | TGI (SNB-19 CNS) [µM] | TGI (SF-268 CNS) [µM] | TGI (CCRF-CEM leukemia) [µM] | TGI (HS 578T breast) [µM] | TGI (HT29 colon) [µM] | TGI (DU-145 prostate) [µM] | TGI (HL-60(TB) leukemia) [µM]
1 | CN(C)S(=O)(=O)n1ccnc1 | > 100 | > 100 | > 100 | > 100 | > 100 | > 100 | > 100 | > 100 | > 100 | > 100 | > 100 | > 100 | > 100 | > 100 | – | – | – | – | –
2 | C[C@]1(O)CC(=O)c2c(c(-c3ccc4cc5c(c(O)c4c3O)C(=O)C[C@@](C)(O)C5)c3cccc(O)c3c2O)C1 | 14 | 8.72 | 25.3 | 18.6 | 47.8 | 17.1 | 26.6 | 11.3 | 79.7 | 14.8 | 24.7 | 13.2 | 23.2 | 17.9 | > 100 | 88 | 20 | 29 | –
3 | COc1ccc(C2Cc3cc(OC)c(OC)c(OC)c3C2=O)cc1 (centres undefined) | > 100 | – | > 100 | > 100 | > 100 | > 100 | > 100 | > 100 | > 100 | > 100 | > 100 | – | > 100 | > 100 | > 100 | – | > 100 | – | –
4 | O=S1(=O)COc2ccccc2-c2ncncc21 | > 100 | > 100 | > 100 | > 100 | > 100 | > 100 | > 100 | > 100 | > 100 | > 100 | > 100 | – | > 100 | > 100 | > 100 | – | > 100 | – | > 100
5 | CCOC(=O)CSc1[nH]c2nc(C)nc(Cl)c2c1C#N | > 10 | > 10 | – | > 10 | > 10 | > 10 | > 10 | – | – | – | > 10 | > 10 | – | > 10 | > 10 | – | > 10 | > 10 | > 10
6 | CNC(=S)NNC1=NCCCN1 | > 100 | > 100 | > 100 | > 100 | > 100 | > 100 | > 100 | > 100 | > 100 | > 100 | > 100 | > 100 | > 100 | > 100 | > 100 | > 100 | > 100 | – | > 100
7 | O=C(CC(=O)C(=O)CC(=O)OCc1ccccc1)OCc1ccccc1 | > 100 | > 100 | > 100 | – | > 100 | > 100 | – | – | > 100 | 75.7 | > 100 | – | > 100 | > 100 | > 100 | – | > 100 | – | > 100
8 | CCOC(=O)CC/C(C)=N\n1c(Cc2ccc(Cl)cc2)n[nH]c1=O | > 100 | – | 55.5 | > 100 | > 100 | > 100 | > 100 | > 100 | > 100 | > 100 | – | > 100 | > 100 | > 100 | – | > 100 | > 100 | > 100 | > 100
9 | CC(=O)OC[C@@]12CC[C@H]3C(C)(C)CCC[C@]3(C)[C@H]1C[C@@H](C1=CC(=O)O[C@H]1O)O2 | 9.08 | – | 37.8 | 21.3 | 7.27 | 3.32 | 3.42 | 29 | 9.07 | 4.95 | 24.3 | 17.4 | 37.2 | 28.1 | 3.62 | 17 | 7.71 | 20.4 | –
10 | C/C(=N\N=C(\N)OB(F)F)c1ccccn1 | > 100 | 85.7 | > 100 | > 100 | – | > 100 | > 100 | > 100 | > 100 | > 100 | > 100 | – | > 100 | > 100 | 73.1 | > 100 | > 100 | > 100 | > 100
11 | Cn1c(=O)c2[nH]c(/N=N\n3ccc4ccccc43)nc2n(C)c1=O | > 100 | – | > 100 | > 100 | > 100 | > 100 | > 100 | > 100 | > 100 | > 100 | > 100 | > 100 | > 100 | > 100 | > 100 | > 100 | > 100 | > 100 | > 100
